In article PMC6778101 (Nature Communications, 2019):
Read-outs that look alike come from different tables or passages of the source.

Experiments:
E. coli K-12 BW25113 = experiment: microbe, parasite or virus in culture; type: cell-based, Escherichia coli; conditions: starting wild-type strain of the evolution experiment; broth dilution, MS medium, 5 × 10^5 cells/mL, 30 °C, 24 h, MIC = OD600 < 0.05
[1] = tested on: E. coli K-12 BW25113 carrying ASKA plasmids; experiment: microbe, parasite or virus in culture; type: cell-based, Escherichia coli; conditions: MS medium + 10 µg mL−1 CHL + 500 µM IPTG, 5 × 10^5 cells, 16–18 h, 37 °C
How it was run: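 E. coli BW25113 transformed with the pooled ASKA ORF overexpression library, or empty-vector control, grown with CHL, induced with IPTG.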

E.coli K-12 BW25113 = type: cell-based, Escherichia coli; conditions: for MIC (freshly prepared AMP): plates inoculated immediately; for MIC (pre-incubated AMP): plates pre-incubated 72 hours before inoculation
Procedure: (§1) MICs were determined using a standard serial broth dilution technique. Briefly, 11-step serial dilutions were prepared in 96-well microtiter plates with three replicates per strain and antimicrobial compound. Each experiment was repeated at least twice. 5 × 10^5 cells/mL were inoculated into each well, and the plates were incubated at 30 °C in case of E. coli K-12 BW25113, and its antibiotic and AMP-adapted lines, or 37 °C in case of the other bacterial species. Plates were shaken at 300 r.p.m. during incubation for 24 and 18 h, respectively. Cell growth was monitored by measuring the optical density (OD600 value, Biotek Synergy 2 microplate reader was used for this purpose). […] Relative MIC was calculated as follows: MICrelative = MICevolved/MICcontrol.
Supplementary Table 7- Effect of incubation time on the minimum inhibitory concentration (MIC) of AMPs. We tested whether the prolonged incubation time can affect the MIC of AMPs. To test this, two sets of AMP containing MIC plates were prepared in parallel. The first set was immediately inoculated with E.coli K-12 BW25113, while the second set was pre-incubated 72 hours before inoculation with the […]
observed in the MIC between freshly prepared and pre-incubated plates. […]

K. pneumoniae ATCC 10031 = type: cell-based, Klebsiella pneumoniae; conditions: starting strain; broth dilution, MS medium, 37 °C, 18 h
Procedure: (§2) Unless otherwise indicated, we used E. coli K-12 BW25113 in all high-throughput experiments. To investigate the impact of mutation rate on evolution of AMP resistance, we initiated laboratory evolution with a mutator strain E. coli mutD5 that carries mutations in the dnaQ gene (L73W and A164V).
as §1

S. enterica LT2 = type: cell-based, Salmonella enterica subsp. enterica serovar Typhimurium; conditions: starting strain; broth dilution, MS medium, 37 °C, 18 h
Procedure: as §2, §1

A. baumannii ATCC 17978 = type: cell-based, Acinetobacter baumannii; conditions: starting strain; broth dilution, MS medium, 37 °C, 18 h
Procedure: as §2, §1

[2] = tested on: E. coli ATCC 25922, S. enterica LT2, K. pneumoniae ATCC 10031, A. baumannii ATCC 17978; experiment: Laboratory evolution in pathogenic bacteria, statements for all four pathogens together; type: cell-based
From the text: The tested pathogens initially sensitive to the AMPs and the antibiotics included Escherichia coli (ATCC® 25922™) (abbreviated as E. coli ATCC 25922), Salmonella enterica subsp. enterica serovar Typhimurium LT2 (abbreviated as S. enterica LT2), Klebsiella pneumoniae subsp. pneumoniae (Schroeter) Trevisan (ATCC® 10031™) (abbreviated as K. pneumoniae ATCC 10031) and Acinetobacter baumannii Bouvet and Grimont (ATCC® 17978™) (abbreviated as A. baumannii ATCC 17978).
The evolutionary protocol was designed to avoid population extinction and to ensure that populations with the highest level of resistance were propagated further. Starting with a subinhibitory drug concentration (Supplementary Data 8), resulting in ~50% growth inhibition, 10 parallel populations per drug were allowed to grow in Minimal Salts medium for 72 h and 300 r.p.m. E. coli K-12 BW25113 and E. coli mutD5 populations were incubated at 30 °C, while E. coli ATCC 25922, S. enterica LT2, K. pneumonia ATCC 10031, and A. baumannii ATCC 17978 were incubated at 37 °C. […] Prior to each transfer, cell growth was monitored by measuring the optical density at 600 nm (OD600 value, Biotek Synergy 2 microplate reader). Only populations with the highest drug concentration (and reaching OD600 > 0.2) were selected for further evolution. A chess-board layout was used on the plate to monitor potential cross-contamination events. […] E. coli mutD5 was adapted to TPII, also in 10 parallel evolving populations.
MICs were determined using a standard serial broth dilution technique. Briefly, 11-step serial dilutions were prepared in 96-well microtiter plates with three replicates per strain and antimicrobial compound. Each experiment was repeated at least twice. […] Cell growth was monitored by measuring the optical density (OD600 value, Biotek Synergy 2 microplate reader was used for this purpose). […] Relative MIC was calculated as follows: MICrelative = MICevolved/MICcontrol.

E. coli ATCC 25922 = type: cell-based, Escherichia coli; conditions: starting strain; broth dilution, MS medium, 37 °C, 18 h
Procedure: as §2, §1

[3] = time allowed for bacterial growth 24 hours
[4] = time allowed for bacterial growth 48 hours
[5] = time allowed for bacterial growth 72 hours

KTKKKFLKKT [PXB, Polymyxin B, AMP used as a last-resort drug in the treatment of multidrug-resistant Gram-negative bacterial infections; from Sigma-Aldrich]
MIC (E. coli K-12 BW25113): 2.5 µg/mL | MIC value of E. coli K-12 BW25113 carrying the empty plasmid of the ASKA library ([1]; Replicate 1): 3.18 µg/mL | MIC value of E. coli K-12 BW25113 carrying the pooled plasmids of the ASKA library ([1]; Replicate 1): 3.18 µg/mL | MIC value of E. coli K-12 BW25113 carrying the empty plasmid of the ASKA library ([1]; Replicate 2): 3.18 µg/mL | MIC value of E. coli K-12 BW25113 carrying the pooled plasmids of the ASKA library ([1]; Replicate 2): 3.18 µg/mL | MIC value of E. coli K-12 BW25113 carrying the empty plasmid of the ASKA library ([1]; Replicate 3): 3.18 µg/mL | MIC value of E. coli K-12 BW25113 carrying the pooled plasmids of the ASKA library ([1]; Replicate 3): 3.18 µg/mL | MIC (freshly prepared AMP) (E.coli K-12 BW25113; [3]): 4.2 µg/mL | MIC (freshly prepared AMP) (E.coli K-12 BW25113; [4]): 4.2 µg/mL | MIC (freshly prepared AMP) (E.coli K-12 BW25113; [5]): 4.2 µg/mL | MIC (pre-incubated AMP) (E.coli K-12 BW25113; [3]): 5 µg/mL | MIC (pre-incubated AMP) (E.coli K-12 BW25113; [4]): 5 µg/mL | MIC (pre-incubated AMP) (E.coli K-12 BW25113; [5]): 5 µg/mL | MIC (K. pneumoniae ATCC 10031): 2 µg/mL | MIC (S. enterica LT2): 8 µg/mL | MIC (A. baumannii ATCC 17978): 2 µg/mL | resistance after laboratory evolution in pathogens (in words) ([2]; all four pathogenic species): a high level of PXB-resistance has emerged in all pathogens studied | increment of resistance level compared to the corresponding wild-type strain ([2]; certain lines, highest value over the four pathogens): ≤ 20,000 times | MIC (E. coli ATCC 25922): 6 µg/mL
